Experimental data: ChEMBL document CHEMBL3885881, “DrugMatrix”

Species on record: Rattus norvegicus
Type: toxicity, organism-based, Sprague-Dawley
Conditions: in vivo, po, 24 h, route oral GAVAGE, time 1 day, […]; for ABSOLUTE BASOPHIL / ABSOLUTE EOSINOPHIL / ABSOLUTE LYMPHOCYTE / ABSOLUTE MONOCYTE / BASOPHIL / EOSINOPHIL / ERYTHROCYTE COUNT / HEMATOCRIT / HEMOGLOBIN / LEUKOCYTE COUNT / LYMPHOCYTE / MEAN CORPUSCULAR HEMOGLOBIN / MEAN CORPUSCULAR HEMOGLOBIN CONCENTRATION / MEAN CORPUSCULAR VOLUME / MONOCYTE / NEUTROPHIL / PLATELET COUNT: tissue Blood; for ALANINE AMINOTRANSFERASE / ALBUMIN / ALKALINE PHOSPHATASE / ASPARTATE AMINOTRANSFERASE / BLOOD UREA NITROGEN / CARBON DIOXIDE / CHLORIDE / CHOLESTEROL / CREATINE PHOSPHOKINASE / CREATININE / GLUCOSE / LACTATE DEHYDROGENASE / LIPASE / PHOSPHORUS / POTASSIUM / SODIUM / TOTAL BILIRUBIN / TOTAL PROTEIN / URIC ACID: tissue Plasma
[1] = 0 mg/kg, vehicle control, dose level Control

Description: DrugMatrix - Regimen: Single

SMILES: CC(CCc1ccc(O)cc1)NCCc1ccc(O)c(O)c1 (configuration not stated) [DOBUTAMINE]
- ABSOLUTE BASOPHIL [1]: 46.7 cells/µL
- ABSOLUTE EOSINOPHIL [1]: 130 cells/µL
- ABSOLUTE LYMPHOCYTE [1]: 8720 cells/µL
- ABSOLUTE MONOCYTE [1]: 140 cells/µL
- BASOPHIL [1]: 0.43%
- EOSINOPHIL [1]: 1.33%
- ERYTHROCYTE COUNT [1]: 6.45 x10E6/uL
- HEMATOCRIT [1]: 42.2%
- HEMOGLOBIN [1]: 13.33 G/DL
- LEUKOCYTE COUNT [1]: 10.59 x10E3/uL
- LYMPHOCYTE [1]: 82.13%
- MEAN CORPUSCULAR HEMOGLOBIN [1]: 20.67 pg
- MEAN CORPUSCULAR HEMOGLOBIN CONCENTRATION [1]: 31.6 G/DL
- MEAN CORPUSCULAR VOLUME [1]: 65.4 fL
- MONOCYTE [1]: 1.37%
- NEUTROPHIL [1]: 14.3%
- PLATELET COUNT [1]: 1048.67 x10E3/uL
- ALANINE AMINOTRANSFERASE [1]: 44 u/L
- ALBUMIN [1]: 3.93 G/DL
- ALKALINE PHOSPHATASE [1]: 551.33 u/L
- ASPARTATE AMINOTRANSFERASE [1]: 97 u/L
- BLOOD UREA NITROGEN [1]: 13.5 mg/dL
- CARBON DIOXIDE [1]: 37.33 mmol/L
- CHLORIDE [1]: 102.33 MEQ/L
- CHOLESTEROL [1]: 83 mg/dL
- CREATINE PHOSPHOKINASE [1]: 365.33 u/L
- CREATININE [1]: 0.4 mg/dL
- GLUCOSE [1]: 189 mg/dL
- LACTATE DEHYDROGENASE [1]: 170.33 u/L
- LIPASE [1]: 10.67 u/L
- PHOSPHORUS [1]: 11.53 mg/dL
- POTASSIUM [1]: 5.63 MEQ/L
- SODIUM [1]: 144.33 MEQ/L
- TOTAL BILIRUBIN [1]: 0.4 mg/dL
- TOTAL PROTEIN [1]: 6.27 G/DL
- URIC ACID [1]: 0.87 mg/dL
- ABSOLUTE BASOPHIL (15 mg/kg, dose level High): 16.7 cells/µL
- ABSOLUTE EOSINOPHIL (15 mg/kg, dose level High): 56.7 cells/µL
- ABSOLUTE LYMPHOCYTE (15 mg/kg, dose level High): 5150 cells/µL
- ABSOLUTE MONOCYTE (15 mg/kg, dose level High): 130 cells/µL
- BASOPHIL (15 mg/kg, dose level High): 0.23%
- EOSINOPHIL (15 mg/kg, dose level High): 1%
- ERYTHROCYTE COUNT (15 mg/kg, dose level High): 6.18 x10E6/uL
- HEMATOCRIT (15 mg/kg, dose level High): 41.87%
- HEMOGLOBIN (15 mg/kg, dose level High): 13.57 G/DL
- LEUKOCYTE COUNT (15 mg/kg, dose level High): 6.42 x10E3/uL
- LYMPHOCYTE (15 mg/kg, dose level High): 79.73%
- MEAN CORPUSCULAR HEMOGLOBIN (15 mg/kg, dose level High): 21.9 pg
- MEAN CORPUSCULAR HEMOGLOBIN CONCENTRATION (15 mg/kg, dose level High): 32.3 G/DL
- MEAN CORPUSCULAR VOLUME (15 mg/kg, dose level High): 67.7 fL
- MONOCYTE (15 mg/kg, dose level High): 2.1%
- NEUTROPHIL (15 mg/kg, dose level High): 16.6%
- PLATELET COUNT (15 mg/kg, dose level High): 1219 x10E3/uL
- ALANINE AMINOTRANSFERASE (15 mg/kg, dose level High): 48 u/L
- ALBUMIN (15 mg/kg, dose level High): 3.87 G/DL
- ALKALINE PHOSPHATASE (15 mg/kg, dose level High): 483.33 u/L
- ASPARTATE AMINOTRANSFERASE (15 mg/kg, dose level High): 106 u/L
- BLOOD UREA NITROGEN (15 mg/kg, dose level High): 13.67 mg/dL
- CARBON DIOXIDE (15 mg/kg, dose level High): 36.33 mmol/L
- CHLORIDE (15 mg/kg, dose level High): 105 MEQ/L
- CHOLESTEROL (15 mg/kg, dose level High): 67.33 mg/dL
- CREATINE PHOSPHOKINASE (15 mg/kg, dose level High): 728.67 u/L
- CREATININE (15 mg/kg, dose level High): 0.5 mg/dL
- GLUCOSE (15 mg/kg, dose level High): 182.33 mg/dL
- LACTATE DEHYDROGENASE (15 mg/kg, dose level High): 183.67 u/L
- LIPASE (15 mg/kg, dose level High): 13.67 u/L
- PHOSPHORUS (15 mg/kg, dose level High): 12.43 mg/dL
- POTASSIUM (15 mg/kg, dose level High): 5.77 MEQ/L
- SODIUM (15 mg/kg, dose level High): 145 MEQ/L
- TOTAL BILIRUBIN (15 mg/kg, dose level High): 0.33 mg/dL
- TOTAL PROTEIN (15 mg/kg, dose level High): 6.17 G/DL
- URIC ACID (15 mg/kg, dose level High): 1.47 mg/dL
